Entries after “also recorded” stand apart in the source; their conditions may differ.
Assays:
Type in all cases: physicochemical
[1] = Tebuconazole 600 SC formulation viscosity (Table 8); conditions: dendrimer 0.7%
Experimental: (§1) Formulations were prepared by mixing water, surfactant, dispersing agent, wetting agent and antifoam together then gradually adding active. High shear mix for 20-30 minutes to disperse formulation ingredients in water before adding the active and mixing until homogeneous. The mixture was milled on a Dyno bead mill (1 m/s) with 0.4-0.6 mm beads at max. 40° C. until particle size was <4 um. Dendrimer compound (in DEG) was added and stirred for 20 minutes. Thickener and antimicrobial was then added and stirred for 20 minutes. Formulations were deaerated by sonication.

[2] = Water value of dendrimers with solvent (Solvesso 200); conditions: 50 g aqueous solution, 7% dendrimer and 3% DEG; until hazy
Experimental: 50 g Aqueous solution of Dendrimer were prepared containing 7% dendrimer and 3% Diethylene glycol (DEG) by weight. Solvesso 200 (C10-13 aromatic hydrocarbon solvent) was added dropwise under stirring until the solution became hazy. Weight of Solvesso added was recorded.

[3] = Cloud point studies; conditions: 1 gm. dendrimer solution (70:30 w/w dendrimer:Diethylene Glycol) in 99 gm. of 10% NaOH solution
Experimental: 1 gm. of dendrimer solution (70:30 w/w dendrimer [Compound 1 or Compound 4]:Diethylene Glycol) was dissolved in 99 gm. of 10% NaOH solution in Deionized water and heated until hazy. Temperature of the solution was measured using calibrated thermometer.

[4] = Tebuconazole 600 SC hard water testing: suspensibility, column thinning, sedimentation; conditions: 2 ml Tebuconazole 600 SC, dendrimer 0.7%, in 98 ml 342 ppm hard water, 30° C., 24 hours
Experimental: as §1
98 ml of 342 ppm hard water (prepared as per CIPAC method MT18) was heated to 30° C. before adding 2 ml. of Tebuconazole 600 SC formulation. Temperature was maintained at 30° C. for 24 hours and formulation characteristics were studied for suspension stability, wetting, column thinning/separation and sedimentation.

[5] = 2,4-D/dendrimer hard water testing (clarity, sedimentation); conditions: 30° C.; for Appearance at Addition / Appearance/Sedimentation After 24 Hrs.: 2,4-D Amine in 342 ppm hard water; for Appearance of 2,4-D solutions in hard water: all concentrations tested (from 1.4 to 10%), 342 ppm hard water, 24 hours
Experimental: 342 ppm hard water was prepared as per CIPAC method MT18. The hard water was heated to 30° C. […]

[6] = Dynamic viscosity of aqueous dendrimer solution (Brookfield); conditions: aqueous solution 7% dendrimer and 3% DEG, ambient temperature, spindle no. 63 at 50 rpm
Experimental: 50 g aqueous solution of dendrimer (7% dendrimer and 3% DEG) was prepared in deionized water in a beaker, and subjected to dynamic viscosity measurement using Brookfield viscometer at ambient temperature. Viscosity studies were conducted using spindle no. 63 at 50 rpm. It was observed that viscosity of Compound-1 solution was 1.8 cps and Compound-4 solution was 0.6 cps.

[7] = Additional tebuconazole formulations: suspension stability and viscosity; conditions: additional tebuconazole formulation, 0.8% additive
Text: Additional formulations were developed, and formulation characteristics were studied for suspension stability, and viscosity.

[8] = Solubilization of Methylated seed oil (MSO) in aqueous LA-9 solution; conditions: 50 g, until hazy
Experimental: 10% aqueous solution of Ethoxylated Lauryl alcohol-9 mole (water soluble surfactant) was prepared in Deionized water (5 g in 45 ml). Dendrimer compounds 1 and 4 were prepared 70:30 w/w in Diethylene glycol (DEG). The 10% Ethoxylated Lauryl alcohol-9 M (LA-9) solution was combined with dendrimer DEG solution at 80:20 and 60:40 w/w (total weight of 50 g).
Methylated seed oil (MSO) (STEPOSOL-ROE-W, canola oil methyl ester, Stepan) was added dropwise under stirring to the 10% LA-9 solution (with or without dendimers), until the solution became hazy. Weight of MSO added was recorded.

[9] = Tebuconazole 600 SC wetting study in hard water; conditions: one drop Tebuconazole 600 SC, dendrimer 0.7%, in 342 ppm hard water at 30° C.
Experimental: as §1
Wetting studies were conducted by placing one drop of Tebuconazole 600 SC formulation in 342 ppm hard water at 30° C. and recording the time when all the formulation particles were wet and dispersed in water.

[10] = Solubilization of water insoluble surfactant Ethoxylated Lauryl alcohol-3 M in LA-9 solution; conditions: 50 g, until hazy
Experimental: 5% w/w aqueous solution of Ethoxylated Lauryl alcohol-9 mole (water soluble surfactant) was prepared in Deionized water (2.5 g in 47.5 ml). Dendrimer compounds 1 and 4 were diluted 70:30 w/w in Diethylene glycol. The 5% Ethoxylated Lauryl alcohol-9 M (LA-9) solution was combined with dendrimer DEG solution at 90:10, 80:20 and 70:30 w/w (total weight 50 g).
Ethoxylated lauryl alcohol-3 mole (water insoluble surfactant) was added dropwise, while stirring, to the 50 g LA-9 solution (with or without dendrimer), until it became hazy. The weight of Ethoxylated lauryl alcohol-3 M added was recorded.

[11] = 2,4-D/dendrimer formulation stability study (crystallisation at 0° C.); conditions: for Crystallisation After 7 Days at 0° C. With Seeding: 2,4-D Amine 625 g/l seeded with 2,4-D Amine salt; for Crystallisation After 7 Days at 0° C.: without seeding
Experimental: 20 ml of 2,4-D Amine(2,4-D 625 g/l market sample, Rygel, Adama Australia) was transferred to 25 ml clear vials and dendrimer added (with or without 30% Dithethylene Glycol). Caps were tightened to ensure no moisture entered the vials. Formulations were placed in a freezer at 0° C. […] In a related experiment, formulations were prepared with seeding with 2,4-D Amine salt (Shanghai Biochemical Sci. Ltd., purity 98 in order to hasten rate of crystallisation. The results are provided in Table 2.

[12] = 2,4-D Amine 625 g/l, dendrimer 2%
[13] = 2,4-D Amine 625 g/l, dendrimer 5%
[14] = 2,4-D Amine 625 g/l, dendrimer 10%

With `CCC(COCC(O)CN(CCO)CCO)(COCC(O)CN(CCO)CCO)COCC(O)CN(CCO)CCO` (stereo not shown) [Compound 1, 9-((3-(bis(2-hydroxyethyl)amino)-2-hydroxypropoxy)methyl)-9-ethyl-3,15-bis(2-hydroxyethyl)-7,11-dioxa-3,15-diazaheptadecane-1,5,13,17-tetraol, reference compound] as the compound, how does the “Viscosity 0 C.” value ([1]; 0 C.) read?
The value was 786.

What about the “Viscosity 54 C.” value ([1]; 54 C.) of the same compound?
Its value is 743.

And the Viscosity RT ([1]; RT)?
Its Viscosity RT is 720 cP.

And the “Quantity Solvesso 200 added” value [2]?
Its value is 1.31 g.

What about the “Cloud point (temperature at which solution turned hazy)” value [3] of the same compound?
The value was 65 °C.

What about the “Suspensibility: Sediment” value [4] of the same compound?
The value was 0.5 mL⁻¹.

And the “Suspensibility: nature of sediment” value [4]?
Its value is “Compact”.

And the “Suspensibility: Column Thinning” value ([4]; top thinning)?
The value was 10 ml. Top.

And the “Appearance at Addition” value ([5]; dendrimer 1.4% (w/w), 0.6% DEG)?
The value was “Clear”.

What about the “Appearance/Sedimentation After 24 Hrs.” value ([5]; dendrimer 1.4% (w/w), 0.6% DEG) of the same compound?
The value was “Hazy with sediment”.

And the “Appearance at Addition” value ([5]; dendrimer 2% (w/w))?
The value was “Clear”.

And the “Appearance/Sedimentation After 24 Hrs.” value ([5]; dendrimer 2% (w/w))?
The value was “Hazy with sediment”.

What about the “Appearance at Addition” value ([5]; dendrimer 3.5% (w/w), 1.5% DEG) of the same compound?
The value was “Clear”.

What about the “Appearance/Sedimentation After 24 Hrs.” value ([5]; dendrimer 3.5% (w/w), 1.5% DEG) of the same compound?
The value was “Hazy with sediment”.

What about the “Appearance at Addition” value ([5]; dendrimer 5% (w/w)) of the same compound?
The value was “Clear”.

What about the “Appearance/Sedimentation After 24 Hrs.” value ([5]; dendrimer 5% (w/w)) of the same compound?
The value was “Hazy with sediment”.

And the “Appearance at Addition” value ([5]; dendrimer 7% (w/w), 3% DEG)?
Its value is “Clear”.

What about the “Appearance/Sedimentation After 24 Hrs.” value ([5]; dendrimer 7% (w/w), 3% DEG) of the same compound?
The value was “Hazy with sediment”.

And the “Appearance at Addition” value ([5]; dendrimer 10% (w/w))?
The value was “Clear”.

And the “Appearance/Sedimentation After 24 Hrs.” value ([5]; dendrimer 10% (w/w))?
Its value is “Hazy with sediment”.

And the “Appearance of 2,4-D solutions in hard water” value [5]?
Its value is “hazy solutions with sediment”.

And the Dynamic viscosity [6]?
The Dynamic viscosity was 1.8 cps.

What about the “Observation: consistency” value [7] of the same compound?
Its value is “Pseudoplastic liquid,”.

And the “Observation: sediment at 0 C.” value ([7]; 0 C.)?
Its value is “no sediment at 0 C”.

What about the “Viscosity (cP) 0 C.” value ([7]; 0 C.) of the same compound?
The value was 2844 cP.

What about the “Viscosity (cP) RT” value ([7]; RT) of the same compound?
Its value is 2566 cP.

What about the “Quantity MSO added to 10% LA-9 solution” value ([8]; ratio LA-9 solution:dendrimer/DEG solution 60:40 (w/w), 28% dendrimer (w/w)) of the same compound?
Its value is 0.56 g.

What about the “Quantity MSO added to 10% LA-9 solution” value ([8]; ratio LA-9 solution:dendrimer/DEG solution 80:20 (w/w), 14% dendrimer (w/w)) of the same compound?
Its value is 0.54 g.

What about the Wetting [9] of the same compound?
Its Wetting is 33.3 s.

And the “Quantity LA-3 added to LA-9 solution” value ([10]; ratio 5% LA-9 solution:dendrimer/DEG solution 70:30 (w/w), 21% dendrimer (w/w))?
Its value is 1.96 g.

What about the “Quantity LA-3 added to LA-9 solution” value ([10]; ratio 5% LA-9 solution:dendrimer/DEG solution 80:20 (w/w), 14% dendrimer (w/w)) of the same compound?
Its value is 2.00 g.

What about the “Quantity LA-3 added to LA-9 solution” value ([10]; ratio 5% LA-9 solution:dendrimer/DEG solution 90:10 (w/w), 7% dendrimer (w/w)) of the same compound?
Its value is 1.83 g.

And the “Crystallisation After 7 Days at 0° C. With Seeding” value ([11]; dendrimer 1.4%, Diethylene Glycol 0.6%)?
The value was “Crystallised”.

And the “Crystallisation After 7 Days at 0° C. With Seeding” value ([11]; dendrimer 3.5%, Diethylene Glycol 1.5%)?
The value was “Crystallised”.

And the “Crystallisation After 7 Days at 0° C. With Seeding” value ([11]; dendrimer 7%, Diethylene Glycol 3%)?
Its value is “Crystallised”.

What about the “Crystallisation at 0° C. with seeding” value ([11]; 2,4-D Amine 625 g/l, all the dosages of dendrimer) of the same compound?
Its value is “crystallised”.

And the “Crystallisation After 14 Days at 0° C.” value ([11]; 2,4-D Amine 625 g/l, dendrimer 1.4%, Diethylene Glycol 0.6%)?
The value was “Crystallised”.

What about the “Crystallisation After 14 Days at 0° C.” value [11, 12] of the same compound?
The value was “Crystallised”.

What about the “Crystallisation After 14 Days at 0° C.” value ([11]; 2,4-D Amine 625 g/l, dendrimer 3.5%, Diethylene Glycol 1.5%) of the same compound?
Its value is “Crystallised”.

And the “Crystallisation After 14 Days at 0° C.” value [11, 13]?
The value was “Crystallised”.

And the “Crystallisation After 14 Days at 0° C.” value ([11]; 2,4-D Amine 625 g/l, dendrimer 7%, Diethylene Glycol 3%)?
The value was “Crystallised”.

And the “Crystallisation After 14 Days at 0° C.” value [11, 14]?
Its value is “Crystallised”.

And the “Crystallisation After 7 Days at 0° C.” value [11, 12]?
The value was “resulted in crystallisation; also recorded: Crystallised”.

What about the “Crystallisation After 7 Days at 0° C.” value [11, 13] of the same compound?
The value was “resulted in crystallisation; also recorded: Crystallised”.

And the “Crystallisation After 7 Days at 0° C.” value [11, 14]?
Its value is “No”.

What does the source list for `CCC(COCC(O)CN(CCOC)CCOC)(COCC(O)CN(CCOC)CCOC)COCC(O)CN(CCOC)CCOC` (stereo not shown) [Compound 8, 11-((3-(bis(2-methoxyethyl)amino)-2-hydroxypropoxy)methyl)-11-ethyl-5,17-bis(2-methoxyethyl)-2,9,13,20-tetraoxa-5,17-diazahenicosane-7,15-diol]?
Appearance at Addition ([5]; dendrimer 2% (w/w)): Clear; Appearance/Sedimentation After 24 Hrs. ([5]; dendrimer 2% (w/w)): Hazy with sediment; Appearance at Addition ([5]; dendrimer 5% (w/w)): Clear; Appearance/Sedimentation After 24 Hrs. ([5]; dendrimer 5% (w/w)): Hazy with sediment; Appearance at Addition ([5]; dendrimer 10% (w/w)): Clear; Appearance/Sedimentation After 24 Hrs. ([5]; dendrimer 10% (w/w)): Hazy with sediment; Appearance of 2,4-D solutions in hard water [5]: hazy solutions with sediment
